Test [1] is described as follows: migration (SAR, Table 4). In kind it is cell-based.
For test [2], the target named is T1, MDA-9/Syntenin and c-Src interactions (Homo sapiens, UniProt O00560).
T1 construct: endogenous in cells; host or cells: C8161.9 melanoma cells
Nature of the test: co-immunoprecipitation in C8161.9 cells. In kind it is cell-based. The protocol:
FIG. 54. Effects of PDZ1in (113B7) on MDA-9/Syntenin and c-Src interactions. C8161.9 cells were pre-treated with either DMSO or a dose of 113B7 (as indicated) and re-plated onto fibronectin-coated plates. After 30 minutes, cell lysates were immunoprecipitated and immuneblotted with the indicated antibodies. IgG, immunoglobulin.
Another fundamental issue that we will address as part of the proposed hit-to-lead optimization process is the specificity of the binding of 113B7 to the PDZ1 domain of MDA-9/Syntenin. […] To determine if the PDZin molecule alters physical binding we performed co-immunoprecipitation analysis with c-Src and MDA-9/Syntenin in the presence or absence of 113B7 (FIG. 54). In the case of 113B7, which binds to PDZ1 and the interdomain of MDA-9/Syntenin, no inhibition of c-Src binding was evident.

Test [3] has as its system prostate adenocarcinoma. In words: Hi-myc spontaneous prostate cancer transgenic model. In kind it is in vivo, Hi-myc mice. The settings on record: 30 mg/kg I.P., 9 times for the first three weeks. The protocol: FIG. 19A-19F. PDZ1i suppresses prostate cancer metastasis and tumor progression. FIG. 19A) Survival data for athymic nude mice in which DMSO or PDZ1i pre-treated ARCaPM cells were injected. FIG. 19B) Survival data for athymic nude mice which were injected with (n=5, each group) ARCaPM-Luc (1×10^6 cells in 100 μl saline) through an intracardiac route. Mice received either vehicle or PDZ1i every alternative day (9 injections during the first […]) and maintained until they needed to be euthanized. FIG. 19C) Survival data for C57BL/6 mice injected through the intracardiac route with RM1-Luc. Vehicle or PDZ1i was administered through intraperitoneal injection every alternate day (total 3 injections during the first week). Survival curves were generated using 6 control vehicle-treated and 5 PDZ1i-treated. Kaplan—Meier survival curves were prepared using Graph Pad software. […] Graphical representation of the average prostate weights from control and treated groups. FIG. 19E and FIG. 19F) Photomicrographs representing the histological changes in prostate sections obtained from 6-month old Hi-Myc mice receiving either vehicle (FIG. 19E) or PDZ1i (FIG. 19F). To evaluate potential therapeutic efficacy of PDZ1i four sets of in vivo experiments were conducted. […]

For test [4], the system named is U87-EGFRvIII cells. Nature of the test: immunoblot of EGFRvIII/FAK/NF-kB signaling with radiation. Format: cell-based, human. The protocol:
FIGS. 9A-9C. PDZ1i treatment impairs EGFRvIII and FAK signaling, as well as EGFRvIII-MDA-9 interaction. FIG. 9A. Immunoblot analysis showing expression of mutated EGFR in U87 or U87EGFRvIII cells. FIG. 9B. Cells were treated with either DMSO or PDZ1i 2 hrs prior to radiation. These cells were subsequently seeded on fibronectin-coated plates and cell lysates were collected after 1 hr and analyzed for protein expression. FIG. 9C. Lysates from cells treated with and without radiation or PDZ1i as indicated were analyzed via immunoprecipitation. Anti-MDA-9, top, and anti-EGFR, bottom, were used to pull down associated complexes, and western blotting was performed with the indicated antibodies. Left lanes include IgG and control input samples.
PDZ1i inhibits EGFRvIII-driven signaling in GBM and reduces MMP secretion. EGFR amplification and mutation is both a common and important alteration in GBM. A particular mutation of this receptor, EGFRvIII, is often co-expressed along with EGFR amplification in GBM. […] U87 cells stably expressing EGFRvIII, U87-EGFRvIII (FIG. 9), were treated with PDZ1i prior to radiation. […]
Preparation of whole-cell lysates and Western blotting analysis was performed as described (5). For densitometry evaluation, X-ray films were scanned and analyzed with ImageJ software (NIH).
In general terms: In western blotting, separated proteins are transferred to a membrane and probed.

T1 sequence (O00560 2-298 limits assumed): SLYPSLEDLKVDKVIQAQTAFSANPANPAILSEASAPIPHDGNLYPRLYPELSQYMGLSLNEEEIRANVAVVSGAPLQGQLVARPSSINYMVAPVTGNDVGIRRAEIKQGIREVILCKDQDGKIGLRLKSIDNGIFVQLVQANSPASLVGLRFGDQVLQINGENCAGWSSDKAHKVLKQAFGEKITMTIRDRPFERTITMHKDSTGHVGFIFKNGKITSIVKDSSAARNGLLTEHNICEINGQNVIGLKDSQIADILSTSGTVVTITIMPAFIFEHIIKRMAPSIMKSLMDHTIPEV
T1 sequence (P12931 2-536 partner limits assumed): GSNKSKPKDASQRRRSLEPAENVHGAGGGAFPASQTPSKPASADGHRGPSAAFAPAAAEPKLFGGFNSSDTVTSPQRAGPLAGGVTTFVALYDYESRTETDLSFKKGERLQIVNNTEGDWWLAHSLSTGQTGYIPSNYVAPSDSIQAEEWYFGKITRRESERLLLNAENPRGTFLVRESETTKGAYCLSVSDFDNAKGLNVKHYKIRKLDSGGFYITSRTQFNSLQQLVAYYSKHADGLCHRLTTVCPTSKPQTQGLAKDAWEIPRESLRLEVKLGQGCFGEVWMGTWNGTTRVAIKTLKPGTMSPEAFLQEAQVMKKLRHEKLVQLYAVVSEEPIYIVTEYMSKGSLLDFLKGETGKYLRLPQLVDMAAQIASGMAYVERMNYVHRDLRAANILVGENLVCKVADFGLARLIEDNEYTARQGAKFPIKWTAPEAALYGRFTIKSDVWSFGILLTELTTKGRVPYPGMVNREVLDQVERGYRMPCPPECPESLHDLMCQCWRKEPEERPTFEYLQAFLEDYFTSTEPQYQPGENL

`Cc1cc(NC(=O)c2nc3[nH]c4c(c(=O)n3n2)CCC4)c(C)cc1NC(=O)CCc1nnc(-c2ccccc2)o1` [113B7, N-(2,5-dimethyl-4-(3-(5-phenyl-1,3,4-oxadiazol-2-yl)propanamido)phenyl)-8-oxo-5,6,7,8-tetrahydro-4H-cyclopenta[d][1,2,4]triazolo[1,5-a]pyrimidine-2-carboxamide]: the “% migr.” value in test [1] was 62%. Also, the “c-Src binding to MDA-9/Syntenin” value in test [2] is on record as “no inhibition”. Besides, the “size and weight of prostates” value in test [3] is recorded as “significantly less”. Moreover, the “FAK activation after radiation” value in test [4] (PDZ1i prior to radiation) is on record as “nullified”. Besides, in test [4] (radiated and non-radiated cells), the phospho-EGFR entry is reported as “significantly reduced”.

(Values after patent US11008325B2, “Inhibitors of cancer invasion, attachment, and/or metastasis” (VIRGINIA COMMONWEALTH UNIVERSITY, priority 2016, dated 2021).)
